Test results: article PMC11938014, “Development and Application of Small Molecule–Peptide Conjugates as Cathepsin K-Specific Covalent Irreversible Inhibitors in Human Osteoclast and Lung Cancer” (JACS Au, 2025)

Experiments:
[1] = biological target: T1, CTSK in U2-OS and U-87 MG cells (Homo sapiens, UniProt P43235); experiment: Fluorescence microscopy of CTSK inhibition in cell lines (GD32 probe); type: cell-based; conditions: 3 μM, 2 h
T1 construct: endogenous in cells; host or cells: U2-OS and U-87 MG
T1 sequence (P43235 115-329): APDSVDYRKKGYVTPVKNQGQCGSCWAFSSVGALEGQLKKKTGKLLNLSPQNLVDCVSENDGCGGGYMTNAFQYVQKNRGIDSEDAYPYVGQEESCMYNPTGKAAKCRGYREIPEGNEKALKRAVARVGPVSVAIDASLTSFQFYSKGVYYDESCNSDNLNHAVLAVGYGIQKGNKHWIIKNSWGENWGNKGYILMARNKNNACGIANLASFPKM
Description: We next corroborated CTSK-specific inhibition by fluorescence microscopy studies of OC. Human OC were grown on 8-well plates; the intact cells were treated with either of the CTSK inhibitors or with the vehicle and then with the CTSK-specific fluorescent ABP GD32.[19] The fluorescence microscopy pictures were acquired following cell fixation, which permitted imaging and evaluating CTSK activity and inhibition in cells. […] As the inhibitors are specific to CTSK, they could not block the fluorescence signals of GB123 associated with other cathepsins (B, L, S) (Figure 8b).
Figure 8 Detection of inhibition of endogenous cathepsin K in intact cells by fluorescence microscopy. Enriched human monocytes from peripheral blood mononuclear cells (PBMC) were isolated from healthy donors’ blood and were treated for 14 days with M-CSF and RANKL or M-CSF alone, as indicated. Osteoclast cells were treated with vehicle (DMSO) or indicated inhibitors [3 μM] in a culture medium for 2 h, followed by incubation with (a) GD32 (a specific CTSK ABP) for 8 h or (b) GB123 for 2 h. Similar to those described in panel (a), cultures of U2-OS cells (c) and U-87 MG cells (d) were grown in 8-well chambers. Cells were pretreated with either the DMSO or [3 μM] of indicated specific CTSK inhibitors for 2 h and then labeled by the addition of 1.25 μM GD32 to the culture medium for 24 h (U2-OS) or 2 h (U-87 MG). […]

human osteoclasts = experiment: Bone resorption assay, pit formation on bone slices (toluidine blue); type: cell-based; conditions: Osteoclast, compared to vehicle-treated OC
Description: The selective blockage of cellular CTSK activity allowed us to assess the effect of the inhibitors on bone resorption induced by osteoclasts (OCs) as an important step toward therapeutic application in osteoporosis, bone metastases, and other diseases associated with excessive bone resorption. Human OCs were derived from CD14+ monocytes that were extracted from healthy donors’ blood and treated with M-CSF and RANKL, as described in Abdallah et al.[46] The OC were grown on cortical bone slices over 14 days in the presence of the CTSK inhibitors to evaluate the impact of inhibitors on bone resorption; see scheme (Figure 6a).
Figure 6 CTSK inhibition in human osteoclasts. (a) Scheme of the process of maturation of osteoclasts (OCs) derived from human monocytes in the presence of RANKL and M-CSF. […] (c) Quantitative analysis of pit formation in bone slices after incubation with OC treated with GD20 or ODN (1, 5 μM) relative to vehicle treated slices. […] (e) Quantification of osteoclasts number on bone slices after inhibitor treatment, detected by TRAP staining. […] The activity of CTSK in the cells was detected by 2 h labeling with a pan-cathepsin activity-based probe, GB123, followed by a fluorescence scan of the SDS-PAGE detecting CTSK attached to the probe; the red arrow points to the bands of CTSK (above 25 kDa). […]

SMILES | CTSK activity labeled by GD32 probe [1] | inhibition at 5 µM (human osteoclasts) [%]
CC(C)C[C@H](N[C@@H](c1ccc(-c2ccc(S(C)(=O)=O)cc2)cc1)C(F)(F)F)C(=O)NCC(=O)COC(=O)[C@@H]1CCCN1C(=O)[C@H](CC(C)C)NC(=O)OCC1c2ccccc2-c2ccccc21 [GD20] | block CTSK activity | 94 ± 1.57
CC(C)(F)C[C@H](N[C@@H](c1ccc(-c2ccc(S(C)(=O)=O)cc2)cc1)C(F)(F)F)C(=O)NC1(C#N)CC1 [ODN, odanacatib, reference compound] |  | 93 ± 1.45
CC(C)C[C@H](N[C@@H](c1ccc(-c2ccc(S(C)(=O)=O)cc2)cc1)C(F)(F)F)C(=O)NCC(=O)COC(=O)[C@@H]1CCCN1C(=O)[C@H](CCC(N)=O)NC(=O)OCC1c2ccccc2-c2ccccc21 [GD38] | block CTSK activity | 
